Source: US9029545B2, “Thienopyridine NOX2 inhibitors” (GlaxoSmithKline Intellectual Property Limited, priority 2009, dated 2015)

Molecular target: T1, NOX2 in differentiated HL60 cells (Homo sapiens, UniProt P04839)
T1 construct: Differentiation of HL-60 cells to granulocytes increases NOX2 expression; endogenous in cells; host or cells: HL60 cells differentiated to neutrophil-like cells with 1.3% DMSO and stimulated with PMA
T1 sequence (P04839 1-570): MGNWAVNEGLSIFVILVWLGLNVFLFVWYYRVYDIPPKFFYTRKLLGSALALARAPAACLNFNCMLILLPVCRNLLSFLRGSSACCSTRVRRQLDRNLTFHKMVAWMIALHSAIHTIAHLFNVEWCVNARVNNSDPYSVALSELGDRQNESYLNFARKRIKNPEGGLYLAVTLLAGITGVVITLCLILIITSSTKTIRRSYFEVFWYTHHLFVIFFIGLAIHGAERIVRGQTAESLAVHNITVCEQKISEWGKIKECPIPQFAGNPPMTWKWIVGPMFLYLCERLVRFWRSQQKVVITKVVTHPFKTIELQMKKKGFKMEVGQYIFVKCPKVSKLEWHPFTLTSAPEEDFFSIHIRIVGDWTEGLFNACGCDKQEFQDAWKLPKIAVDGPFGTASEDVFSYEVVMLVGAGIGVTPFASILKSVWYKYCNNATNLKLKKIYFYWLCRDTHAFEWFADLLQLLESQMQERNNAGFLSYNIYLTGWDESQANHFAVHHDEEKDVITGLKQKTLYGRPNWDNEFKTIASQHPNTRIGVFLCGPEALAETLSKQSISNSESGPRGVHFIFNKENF
T1 sequence (P13498 1-195 partner): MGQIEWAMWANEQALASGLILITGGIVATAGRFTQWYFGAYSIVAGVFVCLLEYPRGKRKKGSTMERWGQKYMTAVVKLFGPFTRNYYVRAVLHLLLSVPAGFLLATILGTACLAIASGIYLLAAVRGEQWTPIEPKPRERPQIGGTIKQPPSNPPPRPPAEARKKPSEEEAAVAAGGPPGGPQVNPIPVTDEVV
Test: HL60 cell-based assays (Assay 1 Oxyburst green BSA fluorescence, Assay 2 L-012 luminescence); result stated for at least one of them
Details: PMA-stimulated superoxide production in differentiated HL60 cells; at least one of Oxyburst and L012 assays; read-out: pIC50 in at least one of the HL60 assays (converted)
Protocol: In the cell-based assay, superoxide production by NOX2 was measured in differentiated HL60 cells, a human myelomonocytic leukemia cell line, using either Oxyburst (Assay1) or L012 (Assay2). Differentiation of HL-60 cells to granulocytes increases NOX2 expression. The phorbol 12-myristate 13-acetate (PMA) was used to stimulate the production of superoxide in HL60 cells by activating protein kinase C, which then activated the NADPH oxidase (NOX) enzymes. Inhibition of NOX2 enzyme was detected by the reversal of fluorescence signal (Assay1) or luminescence signal (Assay2). The control inhibitor used was diphenyleneiodonium chloride (DPI), a […] inhibitor capable of non-selectively inhibiting superoxide produced by NOX enzymes.
Assay 1: in this high-throughput screening assay, oxyburst green bovine serum albumin (BSA) was used to detect superoxide production in HL60 cells. Oxidation of Oxyburst green BSA by hydrogen peroxide as a result of the activation of NOX2 by PMA. Oxyburst green BSA fluorescence was measured at excitation 485 nm and emission 530 nm.
Assay 2: in this assay, a chemiluminescence probe, L-012 was used to detect superoxide production in HL60 cells. L-012 reacted with various types of reactive oxygen species generated by PMA-activated HL60 cells. Luminescence was measured using Tecan Infinite 500.
The HL60 cells were differentiated into neutrophil-like cells by adding 1.3% DMSO in the media for 3-7 days (Hua, J et al. (2000) Journal of Leukocyte Biology. 68:216-224). Iscove's Modified Dulbecco's Media (IMDM) with L-Glutamine and 25 mM HEPES buffer, Fetal Bovine Serum (FBS), Penicillin/Streptomycin, Oxyburst Green BSA, PBS, and HBSS buffer with Calcium Chloride and Magnesium Chloride were purchased from Invitrogen (Catalog #s: 12440-061, 10500-064, 15140-163, O-13291, 14190-250, and 14025-134 respectively). Phorbol 12-myristate 13-acetate (PMA), glucose, and CHAPS were purchased from Sigma (Catalog #s: 79346, D-9434, and C5070 respectively). Diphenyleneiodonium chloride (DPI) was purchased from Toronto Research Chemicals (Catalog #: D491500). L-012 was purchased from Wako Chemical (Catalog #: 120-04891). Dimethyl sulfoxide (DMSO) was purchased EMD Chemicals (VWR Catalog #: MX1456-1). Multidrop combi was purchased from Thermo Electron Corporation (Waltham, Mass., USA). Hummingbird nanoliter liquid dispenser was purchased from Genomics Solution (Ann Arbor, Mich., USA). 384 well low-volume plates and polypropylene 384 well clear plates were purchased from Greiner (Catalog #: 784076 and 781280 respectively). 96 well plate and 384 well plate black assay plates were purchased from Greiner (Catalog #: 655094 and 781098). 96 well plate for compound serial dilution was purchased from Corning (Catalog #: 9017). Acquest or Analyst fluorescence plate reader was purchased from LJL Biosystems/Molecular Devices (California, USA). Tecan Infinite 500 was purchased from Tecan (Switzerland).
Media for HL60 cells were kept at 4° C. for storage and were warmed to 37° C. in a water bath before use. The media components were IMDM media with 20% FBS and 1% Penicillin/Streptomycin.
Buffer to be used for compound addition and compound dilution consisted of HBSS buffer with 0.1% glucose.
Buffer to be used for cells consisted of HBSS buffer with 0.1% glucose and 0.01% CHAPS.
HL60 cells were thawed and resuspended in Cells media. The cells were centrifuged at 1200 rpm for 8 minutes. Media was aspirated and the cells were resuspended in Cells buffer. The cells were counted and resuspended to 1×10^6 cells/mL.
Full inhibition controls were dispensed using 100 nL/well of 1 mM DPI in DMSO to column 18 of a 384 well plate. Compounds were dispensed using 100 nL/well. Full activity controls were dispensed using 100 nL/well of 4 uM PMA in DMSO. Oxyburst Green BSA was added to cell solution at 10 ug/mL. Using the Multidrop, 10 uL cell solution was added to the entire assay plate. The assay plate was incubated at room temperature for 100 minutes. […]

COc1cccc(-c2c(-c3ccoc3)sc3nc(C)cc(NS(=O)(=O)c4cccc(Cl)c4)c23)c1 [Example 57, 3-Chloro-N-{2-(3-furanyl)-6-methyl-3-[3-(methyloxy)phenyl]thieno[2,3-b]pyridin-4-yl}-benzenesulfonamide]
IC50: < 100 µM

COc1cccc(-c2c(-c3cn[nH]c3)sc3nc(C)cc(NS(=O)(=O)c4cccc(Cl)c4)c23)c1 [Example 58, 3-Chloro-N-[6-methyl-3-[3-(methyloxy)phenyl]-2-(1H-pyrazol-4-yl)thieno[2,3-b]pyridin-4-yl]benzenesulfonamide]
IC50: < 100 µM

COc1cccc(-c2csc3nccc(NS(=O)(=O)c4cccc(Cl)c4)c23)c1 [Example 62, 3-Chloro-N-{3-[3-(methyloxy)phenyl]thieno[2,3-b]pyridin-4-yl}benzenesulfonamide]
IC50: < 100 µM

Cc1cc(NS(=O)(=O)c2cccc(Cl)c2)c2c(-c3cn[nH]c3)c(C)sc2n1 [Example 63, 3-Chloro-N-[2,6-dimethyl-3-(1H-pyrazol-4-yl)thieno[2,3-b]pyridin-4-yl]benzenesulfonamide]
IC50: < 100 µM

COc1cncc(-c2c(C)sc3nc(C)cc(NS(=O)(=O)c4cccc(Cl)c4)c23)c1 [Example 67, 3-Chloro-N-{2,6-dimethyl-3-[5-(methyloxy)-3-pyridinyl]thieno[2,3-b]pyridin-4-yl}benzenesulfonamide]
IC50: < 100 µM

Cc1cccc(-c2c(C)sc3nc(C)cc(NS(=O)(=O)c4cccc(Cl)c4)c23)c1 [Example 69, 3-Chloro-N-[2,6-dimethyl-3-(3-methylphenyl)thieno[2,3-b]pyridin-4-yl]benzenesulfonamide]
IC50: < 100 µM

Cc1cc(NS(=O)(=O)c2cccc(Cl)c2)c2c(-c3cccc(CNC(=O)OC(C)(C)C)c3)c(C)sc2n1 [Example 70, 1,1-Dimethylethyl {[3-(4-{[(3-chlorophenyl)sulfonyl]amino}-2,6-dimethylthieno[2,3-b]pyridin-3-yl)phenyl]methyl}carbamate]
IC50: < 100 µM

Cc1cc(NS(=O)(=O)c2cccc(Cl)c2)c2c(C)c(-c3cn[nH]c3)sc2n1 [Example 76, 3-Chloro-N-[3,6-dimethyl-2-(1H-pyrazol-4-yl)thieno[2,3-b]pyridin-4-yl]benzenesulfonamide]
IC50: < 100 µM

Cc1cc(NS(=O)(=O)c2cccc(Cl)c2)c2c(Br)c(-c3cn[nH]c3)sc2n1 [Example 100, N-[3-Bromo-6-methyl-2-(1H-pyrazol-4-yl)thieno[2,3-b]pyridin-4-yl]-3-chlorobenzenesulfonamide]
IC50: < 100 µM

COc1cccc(-c2c(C)sc3nc(Cl)cc(NS(=O)(=O)c4cccc(Cl)c4)c23)c1 [Example 117, 3-Chloro-N-{6-chloro-2-methyl-3-[3-(methyloxy)phenyl]thieno[2,3-b]pyridin-4-yl}benzenesulfonamide]
IC50: < 100 µM
